Measurements reported in US20220162240A1, “MITOCHONDRIA-TARGETED ISOKETAL/ISOLEVUGLANDIN SCAVENGERS” (Vanderbilt University, priority 2019, published 2022).
“Also recorded” adds a separate entry of the source.

How the values were obtained:
[1] = test system: mitochondrial isoLG protein adducts; assay: Western blot of isoLG adducts and CypD-isoLG (D11 antibody) in aorta mitochondria of Ang II-infused mice; format: in vivo
Experimental: (§1) (A) Blood pressure in C57Bl/6J mice infused with saline (Sham) or Ang II ([…]). Mito2HOBA was supplemented in drinking water (0.1 g/L). (B) Western blot of aorta mitochondria for isoLG adducts (D11 antibody), CypD, GCN5L1, Sirt3 and CypD acetylation (CypD i.p. and anti-Acetyl-K WB). Results are mean±SEM. *P<0.01 vs Sham, **P<0.01 vs Ang II (n=8).
FIG. 18 is a western blot analysis of isoLG protein adducts in mitochondria isolated from aorta dissected from C57Bl/6J mice infused with Ang II and treated with mito2HOBA (A). CypD-isoLG modification was determined by CypD immunoprecipitation and Western blot with anti-isoLG D11 antibody (B).
(§2) Sham or Ang II-infused mice were supplemented with mito2HOBA in the drinking water (0.1 g/L) or plain water. […] Following 14 days of Ang II infusion, mice were sacrificed, aortas were isolated for Western blot studies. […] This causes an imbalance between mitochondrial acetylation and deacetylation pathways leading to hyperacetylation of mitochondrial proteins measured by Ac-K and CypD hyperacetylation.
The potential CypD-isoLG adduct formation was determined by CypD immunoprecipitation and Western blot with anti-isoLG D11 antibody.

[2] = test system: kidney mitochondria; details: Ang II-infused mice, 0.1 g/L in drinking water
Experimental: C57Bl/6J mice were infused with Ang II ([…]) and mito2HOBA in the drinking water (0.1 g/L). Following 14 days of Ang II infusion the animals were sacrificed and kidneys were isolated for mitochondrial studies. […] Respiratory control ratio (State 3/State 4) was measured in isolated kidney mitochondria with glutamate and malate […]. Control level is 100%. (B) Kidney ATP was measured in freshly isolated tissue by luciferase-based luminescent assay. Results are mean±SEM. *P<0.01 vs Sham, **P<0.01 vs Ang II (n=3-8).
(A) Respiratory control ratio (State 3/State 4) was measured in isolated kidney mitochondria with glutamate and malate. Control level is 100%. (B) Kidney ATP level was measured in freshly isolated tissue by luciferase-based luminescent assay. C57Bl/6J mice were infused with Ang II ([…]) and mito2HOBA was provided in the drinking water (0.1 g/L). Following 14 days of Ang II infusion the animals were sacrificed and kidneys were isolated for mitochondrial and ATP studies. Results are mean±SEM. *P<0.01 vs Sham, **P<0.01 vs Ang II (n=3-8).
The inventors analyzed kidney tissue isolated from control mice (Sham), mice drinking mito2HOBA, mice infused with Ang II and Ang II-infused mice supplemented with mito2HOBA (mito2HOBA+Ang II).
To show this, the present inventors analyzed kidney tissue isolated from control mice (Sham), mice drinking mito2HOBA (mito2HOBA), mice infused with Ang II (Ang II) and Ang II-infused mice supplemented with mito2HOBA (mito2HOBA+Ang II).

[3] = Experimental: (§3) Free radical oxidation of arachidonic acid produces highly reactive isolevuglandins (isoLG) which causes mitochondrial dysfunction by opening of the mitochondrial permeability transition pore (mPTP). […] The functional role of mitochondrial isoLG was tested in vivo using angiotensin II model of hypertension. C57Bl/6J mice were infused with angiotensin II (0.7 mg/kg/day) or saline (Sham) and received mito2HOBA in the drinking water (0.1 g/L). […] Decrease of NO is a hallmark of endothelial dysfunction in hypertension due to vascular oxidative stress.
The above example is a water soluble compound which can be supplied to cells in the media and provided to animals in the drinking water.

[4] = test system: human aortic endothelial cells (HAECs); assay: Tolerability in cultured HAEC; format: cell-based
[5] = test system: isoLG-Lysyl-Lactam protein adducts; assay: LC/MS/MS of isoLG-Lys-Lactam protein adducts in kidney mitochondria of Ang II-infused mice; format: in vivo; details: 0.1 g/L in drinking water
Experimental: (A) Representative LC/MS/MS chromatograms; (B) isoLG-Lys-Lactam levels in mitochondria isolated from kidneys of mice drinking water (Sham), mito2HOBA (0.1 g/L), and infused with Ang II (0.7 mg/kg/day). Results are mean±SEM (n=3). *P<0.05 vs Ang II.

[6] = test system: mice; assay: Tolerability in mice receiving compound in drinking water; format: in vivo
[7] = test system: endothelial NO; assay: Endothelial NO by ESR and Fe(DETC)2 in Ang II-infused mice; format: in vivo; details: 0.1 g/L in drinking water, ESR
Experimental: (§4) (A) Aortic […] was measured by DHE probe and HPLC. (B) Endothelial NO was analyzed by ESR and Fe(DETC)2. C57Bl/6J mice were infused with Ang II ([…]) and mito2HOBA was provided in the drinking water (0.1 g/L).
(§5) The present inventors examined vascular oxidative stress by measurements of aortic ? using fluorescent ? probe DHE and HPLC, and analysis of endothelial NO using Electron Spin Resonance and specific NO spin trap Fe(DETC)2.
(§6) Among the other actions O2^• inactivates endothelial nitric oxide (NO), promotes vasoconstriction and vascular remodeling and ultimately increases systemic vascular resistance. Decreased NO bioavailability is therefore a hallmark of endothelial oxidative stress in hypertension due to NO oxidation, reduced NO production and eNOS uncoupling. We measured aortic O2^• using the fluorescent O2^• probe DHE and HPLC as we described previously. Endothelial NO was quantified by Electron Spin Resonance (ESR) and specific NO spin trap Fe(DETC)2.

[8] = test system: CypD acetylation; assay: Western blot of aorta mitochondria for GCN5L1, Sirt3, Ac-K and CypD acetylation in Ang II-infused mice; format: in vivo; details: 0.1 g/L in drinking water; for CypD acetylation: CypD i.p. and anti-Acetyl-K WB
Experimental: as §1, §2
Hypertension impairs mitochondrial function and mito2HOBA attenuates mitochondrial dysfunction, and accumulation of mitochondrial isoLG in hypertension promotes CypD acetylation and mPTP opening, impairs mitochondrial respiration and reduces ATP. Scavenging of mitochondrial isoLG with mito2HOBA prevents these deleterious effects. The inventors analyzed kidney tissue isolated from control mice (Sham), mice drinking mito2HOBA, mice infused with Ang II and Ang II-infused mice supplemented with mito2HOBA (mito2HOBA+Ang II).

[9] = test system: human aortic endothelial cells (HAEC); assay: Mitochondrial superoxide in HAEC incubated with Ang II plus TNFα (MitoSOX/HPLC); format: cell-based; details: 50 nM, Ang II + TNFα 24 hours, MitoSOX/HPLC
Experimental: as §3
(§7) Mitochondrial O2^• and cardiolipin oxidation (specific marker of mitochondrial dysfunction and oxidative stress) in cultured human aortic endothelial cells (HAEC) were incubated with Ang II and TNFα.

[10] = test system: Ang II-infused C57Bl/6J mice; assay: Blood pressure in angiotensin II-induced hypertension, mito2HOBA in drinking water; format: in vivo; details: Ang II 0.7 mg/kg/day, compound 0.1 g/L in drinking water
Experimental: as §1
(A) Blood pressure in C57Bl/6J wild type mice infused with either saline (Sham) or Ang II ([…]). Mito2HOBA was supplemented in drinking water (0.1 g/L). (B) Mitochondrial isoLG were measured by Western blot in the heart mitochondria using D11 antibody as we have previously described. Results are mean±SEM. *P<0.01 vs Sham, **P<0.01 vs Ang II (n=8).
as §2
The present inventors implanted an osmotic minipump with Ang II (0.7 mg/kg/day) or saline (Sham) in C57Bl/6J mice receiving mito2HOBA in the drinking water (0.1 g/L) or plain water. […]

[11] = test system: aortic superoxide; assay: Aortic superoxide by DHE probe and HPLC in Ang II-infused mice; format: in vivo; details: 0.1 g/L in drinking water
Experimental: as §4, §5, §6

[12] = test system: mitochondrial isoLG protein adducts; assay: Western blot of isoLG adducts (D11 antibody) in heart mitochondria of Ang II-infused mice; format: in vivo; details: 0.1 g/L in drinking water, 14 days
Experimental: Mito2HOBA was supplemented in drinking water (0.1 g/L). […] Results are mean±SEM. *P<0.01 vs Sham, **P<0.01 vs Ang II (n=8).
as §3

[13] = test system: human aortic endothelial cells (HAEC); assay: Cardiolipin oxidation in HAEC incubated with Ang II plus TNFα (LC/MS); format: cell-based; details: 50 nM, Ang II + TNFα 24 hours
Experimental: as §3, §7

[14] = test system: mitochondrial matrix; details: TPP conjugate, given as example; cited from earlier work

For “4-(aminomethyl)-3-hydroxyphenoxy) butyl)triphenylphosphonium [mito2HOBA]”, the “isoLG adducts in aorta mitochondria” value ([1]; Ang II-infused mice, 0.1 g/L in drinking water, 14 days, D11 antibody) was “prevents accumulation of isoLG adducts; also recorded: attenuated accumulation of mitochondrial isoLG”, the “protein isoLG adducts and CypD-isoLG in aortic mitochondria” value ([1]; CypD immunoprecipitation and Western blot with D11 antibody) was “diminished” and the “mPTP opening (Ca2+ retention capacity) in kidney mitochondria” value ([2]; 14 days) was “attenuates mPTP opening; also recorded: reduces mPTP opening”. For the same molecule, the “mitochondrial respiration (respiratory control ratio State 3/State 4)” value ([2]; kidney mitochondria with glutamate and malate) was “protects mitochondrial respiration”, the “kidney ATP” value ([2]; luciferase-based luminescent assay) was “preserves normal ATP production” and the water solubility [3] was “water soluble”. For the same molecule, the “tolerability by cultured HAECs” value [4] was “well tolerated”, the “concentration well tolerated by cultured HAECs” value ([4]; preliminary in vitro experiments) was “up to 200 nM” and the “isoLG-Lysyl-Lactam protein adducts in kidney mitochondria” value [5] was “abolished isoLG-Lysyl-Lactam adducts formation”. The “tolerability by mice receiving it in drinking water” value [6] was “well tolerated”, the “dose in drinking water well tolerated” value ([6]; preliminary in vivo experiments) was 0.1 to 0.3 g/L and the “endothelial NO” value [7] was “preserved endothelial NO; also recorded: preserves NO bioavailability”. For the same molecule, the “balance between GCN5L1 and Sirt3 in aorta mitochondria” value [8] was “corrects the imbalance between GCN5L1 and Sirt3”, the “mitochondrial Ac-K (acetylation of mitochondrial proteins)” value [8] was “reduces mitochondrial Ac-K” and the CypD acetylation [8] was “reduced CypD acetylation”. The CypD acetylation ([8]; listed as Mito2HOBA) was “prevents CypD hyperacetylation”, the “mitochondrial superoxide production / mitochondrial oxidative stress” value [9] was “inhibited; also recorded: diminished mitochondrial oxidative stress; also recorded: inhibition of mitochondrial oxidative stress” and the “Ang II-induced hypertension (blood pressure)” value [10] was “significantly attenuates”. The “Ang II-induced hypertension (blood pressure)” value ([10]; listed as Mito2HOBA) was “significantly attenuated”, the “vascular (aortic) superoxide” value [11] was “reduced; also recorded: reduces vascular O2^•” and the “isoLG adducts in heart mitochondria” value [12] was “reduced accumulation of isoLG adducts”. The cardiolipin oxidation [13] was “prevented cardiolipin oxidation” and the cardiolipin oxidation ([13]; listed as Mito2HOBA) was “more effective in prevention of cardiolipin oxidation than 2HOBA”.

In the case of `CC1(C)CC(NC(=O)C[P+](c2ccccc2)(c2ccccc2)c2ccccc2)CC(C)(C)N1[O]` [mitoTEMPO], the “concentration within the mitochondrial matrix” value [14] is listed as “more than a five hundred-fold”.
